Assay results published in patent US20200361895A1, “NOVEL SULFONAMIDE CARBOXAMIDE COMPOUNDS” (Inflazome Limited, priority 2017, published 2020).
Where a name gives a salt, the structure may show the parent alone.

target: NLRP3 (Homo sapiens, UniProt Q96P20); assay: THP-1 cells pyroptosis assay (LPS + nigericin, resazurin readout; THP IC50); format: cell-based; parameters: Seed THP-1 cells (25,000 cells/well) containing 1.0 μg/ml LPS in 40 μl of RPMI medium; host or cells: THP-1 cells
Method: THP-1 cells (ATCC #TIB-202) were grown in RPMI containing L-glutamine (Gibco #11835) supplemented with 1 mM sodium pyruvate (Sigma #S8636) and penicillin (100 units/ml)/streptomycin (0.1 mg/ml) (Sigma #P4333) in 10% Fetal Bovine Serum (FBS) (Sigma #F0804). The cells were routinely passaged and grown to confluency (˜10^6 cells/ml). On the day of the experiment, THP-1 cells were harvested and resuspended into RPMI medium (without FBS). The cells were then counted and viability (>90%) checked by Trypan blue (Sigma #T8154). Appropriate dilutions were made to give a concentration of 625,000 cells/ml. To this diluted cell solution was added LPS (Sigma #L4524) to give a 1 μg/ml Final Assay Concentration (FAC). 40 μl of the final preparation was aliquoted into each well of a 96-well plate. The plate thus prepared was used for compound screening.
The following method step-by-step assay was followed for compound screening. • 1. Seed THP-1 cells (25,000 cells/well) containing 1.0 μg/ml LPS in 40 μl of RPMI medium (without FBS) in 96-well, black walled, clear bottom cell culture plates coated with poly-D-lysine (VWR #734-0317) • 2. Add 5 μcompound (8 points half-log dilution, with 10 μM top dose) or vehicle (DMSO 0.1% FAC) to the appropriate wells • 3. Incubate for 3 hrs at 37° C. and 5% CO2 • 4. Add 5 μnigericin (Sigma #N7143) (FAC 5 μM) to all wells • 5. Incubate for 1 hr at 37° C. and 5% CO2 • 6. At the end of the incubation period, spin plates at 300×g for 3 mins and remove supernatant • 7. Then add 50 μl of resazurin (Sigma #R7017) (FAC 100 μM resazurin in RPMI medium without FBS) and incubate plates for a further 1-2 hrs at 37° C. and 5% CO2 • 8. Plates were read in an Envision reader at Ex 560 nm and Em 590 nm • 9. IC50 data is fitted to a non-linear regression equation (log inhibitor vs response-variable slope 4-parameters)

NLRP3, sequence (Q96P20 whole entry): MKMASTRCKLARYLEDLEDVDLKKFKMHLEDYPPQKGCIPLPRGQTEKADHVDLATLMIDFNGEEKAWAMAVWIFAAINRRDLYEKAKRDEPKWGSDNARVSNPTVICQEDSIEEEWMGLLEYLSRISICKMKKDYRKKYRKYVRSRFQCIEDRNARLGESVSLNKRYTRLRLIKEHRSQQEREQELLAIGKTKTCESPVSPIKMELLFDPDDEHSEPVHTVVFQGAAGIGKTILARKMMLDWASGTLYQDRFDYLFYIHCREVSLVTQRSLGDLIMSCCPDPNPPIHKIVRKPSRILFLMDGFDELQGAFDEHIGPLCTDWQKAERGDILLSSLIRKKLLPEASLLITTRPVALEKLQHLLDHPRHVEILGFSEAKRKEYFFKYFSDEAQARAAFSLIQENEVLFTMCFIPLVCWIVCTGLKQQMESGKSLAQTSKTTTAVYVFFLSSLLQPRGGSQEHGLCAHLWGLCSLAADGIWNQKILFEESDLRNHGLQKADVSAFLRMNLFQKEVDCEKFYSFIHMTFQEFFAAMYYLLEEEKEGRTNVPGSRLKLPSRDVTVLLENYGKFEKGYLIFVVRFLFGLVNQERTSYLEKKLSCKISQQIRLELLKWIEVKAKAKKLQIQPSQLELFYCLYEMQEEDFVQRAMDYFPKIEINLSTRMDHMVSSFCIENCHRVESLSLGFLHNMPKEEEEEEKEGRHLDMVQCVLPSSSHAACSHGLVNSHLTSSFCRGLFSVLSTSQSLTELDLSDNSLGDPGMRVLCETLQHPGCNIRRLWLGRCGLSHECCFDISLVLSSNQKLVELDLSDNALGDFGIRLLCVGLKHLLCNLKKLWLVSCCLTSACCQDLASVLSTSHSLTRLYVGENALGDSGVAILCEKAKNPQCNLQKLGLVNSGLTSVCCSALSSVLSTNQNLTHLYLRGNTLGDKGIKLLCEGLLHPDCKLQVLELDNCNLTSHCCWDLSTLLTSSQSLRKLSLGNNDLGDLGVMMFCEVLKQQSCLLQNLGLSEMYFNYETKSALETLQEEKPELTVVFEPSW

Row | SMILES | IC50 [µM]
1 | CC(C)c1cc(F)cc(-c2cncn2C)c1NC(=O)NS(=O)(=O)c1ccn(C(C)C)n1 [Example 3, N-((4-Fluoro-2-iso-propyl-6-(1-methyl-1H-imidazol-5-yl)phenyl)carbamoyl)-1-iso-propyl-1H-pyrazole-3-sulfonamide] | ≤ 5
2 | CC(C)c1cc(F)cc(-c2ccccc2)c1NC(=O)NS(=O)(=O)c1ccn(C(C)C)n1 [Example 4, N-((5-Fluoro-3-iso-propyl-[1,1′-biphenyl]-2-yl)carbamoyl)-1-iso-propyl-1H-pyrazole-3-sulfonamide] | ≤ 5
3 | CC(C)c1cc(F)cc(-c2ccnn2C)c1NC(=O)NS(=O)(=O)c1ccn(C(C)C)n1 [Example 5, N-((4-Fluoro-2-iso-propyl-6-(1-methyl-1H-pyrazol-5-yl)phenyl)carbamoyl)-1-iso-propyl-1H-pyrazole-3-sulfonamide] | ≤ 5
4 | CC(C)c1cc(F)cc(-c2cncs2)c1NC(=O)NS(=O)(=O)c1ccn(C(C)C)n1 [Example 6, N-((4-Fluoro-2-iso-propyl-6-(thiazol-5-yl)phenyl)carbamoyl)-1-iso-propyl-1H-pyrazole-3-sulfonamide] | ≤ 5
5 | CC(C)c1cc(F)cc(-c2cccc(C#N)c2)c1NC(=O)NS(=O)(=O)c1ccn(C(C)C)n1 [Example 8, N-((3′-Cyano-5-fluoro-3-iso-propyl-[1,1′-biphenyl]-2-yl)carbamoyl)-1-iso-propyl-1H-pyrazole-3-sulfonamide, sodium salt] | ≤ 5
6 | CC(C)c1cc(F)cc(-c2ccc(C#N)cc2)c1NC(=O)NS(=O)(=O)c1ccn(C(C)C)n1 [Example 9, N-((4′-Cyano-5-fluoro-3-iso-propyl-[1,1′-biphenyl]-2-yl)carbamoyl)-1-iso-propyl-1H-pyrazole-3-sulfonamide, sodium salt] | ≤ 5
7 | CC(C)c1cc(F)cc(-c2cnn(C)c2)c1NC(=O)NS(=O)(=O)c1cn(C(C)C)cn1 [Example 31, N-((4-Fluoro-2-iso-propyl-6-(1-methyl-1H-pyrazol-4-yl)phenyl)carbamoyl)-1-iso-propyl-1H-imidazole-4-sulfonamide] | ≤ 5
8 | CC(C)c1cc(F)cc(-c2cncnc2)c1NC(=O)NS(=O)(=O)c1cc(CN(C)C)n(C)n1 [Example 42, 5-((Dimethylamino)methyl)-N-((4-fluoro-2-isopropyl-6-(pyrimidin-5-yl)phenyl)carbamoyl)-1-methyl-1H-pyrazole-3-sulfonamide] | ≤ 5
9 | CC(C)c1cc(F)cc(-c2cncnc2)c1NC(=O)NS(=O)(=O)c1cc(CN(C)C)n(C(C)C)n1 [Example 43, 5-((Dimethylamino)methyl)-N-((4-fluoro-2-isopropyl-6-(pyrimidin-5-yl)phenyl)carbamoyl)-1-isopropyl-1H-pyrazole-3-sulfonamide] | ≤ 5
10 | CC(C)c1cc(F)cc(-c2ccnc(C(F)(F)F)c2)c1NC(=O)NS(=O)(=O)c1ccn(C(C)C)n1 [Example 47, N-((4-Fluoro-2-isopropyl-6-(2-(trifluoromethyl)pyridin-4-yl)phenyl)carbamoyl)-1-isopropyl-1H-pyrazole-3-sulfonamide] | ≤ 1
11 | CC(C)c1cc(F)cc(-c2ccnc(C(N)=O)c2)c1NC(=O)NS(=O)(=O)c1cc(CN(C)C)n(C)n1 [Example 67, 4-(2-(3-((5-((Dimethylamino)methyl)-1-methyl-1H-pyrazol-3-yl)sulfonyl)ureido)-5-fluoro-3-isopropylphenyl)picolinamide] | ≤ 5

More lines, now with the values ahead:

Row | IC50 [µM] | SMILES
12 | ≤ 5 | CC(C)c1cc(F)cc(-c2cnn(C)c2)c1NC(=O)NS(=O)(=O)c1ccn(C(C)C)n1 [Example 2, N-((4-Fluoro-2-iso-propyl-6-(1-methyl-1H-pyrazol-4-yl)phenyl)carbamoyl)-1-iso-propyl-1H-pyrazole-3-sulfonamide]
13 | ≤ 5 | CC(C)c1cc(F)cc(-c2cnoc2)c1NC(=O)NS(=O)(=O)c1ccn(C(C)C)n1 [Example 7, N-((4-Fluoro-2-iso-propyl-6-(isoxazol-4-yl)phenyl)carbamoyl)-1-iso-propyl-1H-pyrazole-3-sulfonamide]
14 | ≤ 0.5 | Cc1cc(-c2cc(F)cc(C(C)C)c2NC(=O)NS(=O)(=O)c2ccn(C(C)C)n2)n(C)n1 [Example 11, N-((2-(1,3-Dimethyl-1H-pyrazol-5-yl)-4-fluoro-6-iso-propylphenyl)carbamoyl)-1-iso-propyl-1H-pyrazole-3-sulfonamide, partial ammonium salt]
15 | ≤ 0.5 | Cc1cc(-c2cc(F)cc(C(C)C)c2NC(=O)NS(=O)(=O)c2ccn(C(C)C)n2)ccn1 [Example 13, N-((4-Fluoro-2-iso-propyl-6-(2-methylpyridin-4-yl)phenyl)carbamoyl)-1-iso-propyl-1H-pyrazole-3-sulfonamide, partial ammonium salt]
16 | ≤ 5 | Cc1ncccc1-c1cc(F)cc(C(C)C)c1NC(=O)NS(=O)(=O)c1ccn(C(C)C)n1 [Example 14, N-((4-Fluoro-2-iso-propyl-6-(2-methylpyridin-3-yl)phenyl)carbamoyl)-1-iso-propyl-1H-pyrazole-3-sulfonamide, partial ammonium salt]
17 | ≤ 5 | Cc1ccc(-c2cc(F)cc(C(C)C)c2NC(=O)NS(=O)(=O)c2ccn(C(C)C)n2)cn1 [Example 15, N-((4-Fluoro-2-iso-propyl-6-(6-methylpyridin-3-yl)phenyl)carbamoyl)-1-iso-propyl-1H-pyrazole-3-sulfonamide, partial ammonium salt]
18 | ≤ 5 | CC(C)c1cc(F)cc(-c2cncc(Cl)c2)c1NC(=O)NS(=O)(=O)c1ccn(C(C)C)n1 [Example 16, N-((2-(5-Chloropyridin-3-yl)-4-fluoro-6-iso-propylphenyl)carbamoyl)-1-iso-propyl-1H-pyrazole-3-sulfonamide, partial ammonium salt]
19 | ≤ 5 | COc1cncc(-c2cc(F)cc(C(C)C)c2NC(=O)NS(=O)(=O)c2ccn(C(C)C)n2)c1 [Example 17, N-((4-Fluoro-2-iso-propyl-6-(5-methoxypyridin-3-yl)phenyl)carbamoyl)-1-iso-propyl-1H-pyrazole-3-sulfonamide, partial ammonium salt]
20 | ≤ 1 | CC(C)c1cc(F)cc(-c2cncnc2)c1NC(=O)NS(=O)(=O)c1ccn(C(C)C)n1 [Example 18, N-((4-Fluoro-2-iso-propyl-6-(pyrimidin-5-yl)phenyl)carbamoyl)-1-iso-propyl-1H-pyrazole-3-sulfonamide]
21 | ≤ 1 | COc1ccc(-c2cc(F)cc(C(C)C)c2NC(=O)NS(=O)(=O)c2ccn(C(C)C)n2)cn1 [Example 19, N-((4-Fluoro-2-iso-propyl-6-(6-methoxypyridin-3-yl)phenyl)carbamoyl)-1-iso-propyl-1H-pyrazole-3-sulfonamide]
22 | ≤ 5 | Cc1ccncc1-c1cc(F)cc(C(C)C)c1NC(=O)NS(=O)(=O)c1ccn(C(C)C)n1 [Example 20, N-((4-Fluoro-2-iso-propyl-6-(4-methylpyridin-3-yl)phenyl)carbamoyl)-1-iso-propyl-1H-pyrazole-3-sulfonamide, partial ammonium salt]
23 | ≤ 5 | CC(C)c1cc(F)cc(-c2cncc(F)c2)c1NC(=O)NS(=O)(=O)c1ccn(C(C)C)n1 [Example 21, N-((4-Fluoro-2-(5-fluoropyridin-3-yl)-6-isopropylphenyl)carbamoyl)-1-iso-propyl-1H-pyrazole-3-sulfonamide, partial ammonium salt]
24 | ≤ 1 | Cc1cnccc1-c1cc(F)cc(C(C)C)c1NC(=O)NS(=O)(=O)c1ccn(C(C)C)n1 [Example 22, N-((4-Fluoro-2-iso-propyl-6-(3-methylpyridin-4-yl)phenyl)carbamoyl)-1-iso-propyl-1H-pyrazole-3-sulfonamide]
25 | ≤ 5 | COc1cc(-c2cc(F)cc(C(C)C)c2NC(=O)NS(=O)(=O)c2ccn(C(C)C)n2)cc(C)n1 [Example 26, N-((4-Fluoro-2-iso-propyl-6-(2-methoxy-6-methylpyridin-4-yl)phenyl)carbamoyl)-1-iso-propyl-1H-pyrazole-3-sulfonamide]
26 | ≤ 5 | CCc1cc(-c2cc(F)cc(C(C)C)c2NC(=O)NS(=O)(=O)c2ccn(C(C)C)n2)ccn1 [Example 29, N-((2-(2-Ethylpyridin-4-yl)-4-fluoro-6-iso-propylphenyl)carbamoyl)-1-iso-propyl-1H-pyrazole-3-sulfonamide]
27 | ≤ 5 | CC(C)c1cc(F)cc(-c2ccnc(N(C)C)c2)c1NC(=O)NS(=O)(=O)c1ccn(C(C)C)n1 [Example 50, N-((2-(2-(Dimethylamino)pyridin-4-yl)-4-fluoro-6-isopropylphenyl)carbamoyl)-1-isopropyl-1H-pyrazole-3-sulfonamide]
